Results on 17 molecules are retold here after US5650415A, “Quinoline compounds” (Sugen, Inc., priority 1995, dated 1997).

Usually IC50 stands for the concentration at which inhibition is half-maximal. Higher therefore signals lower potency.

One experiment deals with HER2. The experiment in a line: HER2 whole cell kinase ELISA (second HER2 column of Table 1). It counts as cell-based. Particulars: cell line not given. The text has this:
The following examples illustrates the ability of the exemplary compounds to inhibit receptor tyrosine kinases, such as HER2 and/or EGFR. The following target cells were used for cellular kinase assays: NIH3T3 clone C7 (Honegger et al., supra) engineered to over-express human EGF receptor; NIH3T3 cells engineered to over-express a chimeric receptor containing the EGFR extracellular domain and the HER2 intracellular kinase domain; the human mammary carcinoma line BT474 (ATCC HTB2) expressing HER2; and the human glioblastoma line U1242 that expresses PDGFR-beta. Growth assays were carried out using human mammary epithelial SKBR3 (ATCC HTB30) cells (SKBR3 cells over-express HER2), SKOV3 (AT(D(D HTB77) human ovarian cancer cell line (SKOV3 cells also over-express HER2), A431 cells (A431 cells over-express EGFR) MCF7 human breast carcinoma cells, MCF7 cells overexpressing the HER2 kinase (MCF7-HER2), NIH3T3 cells, and NIH3T3 cells overexpressing the HER2 kinase (3T3-HER2. EGFR-HER2 Chimeric Recetor HER2 kinase activity (EGFR-3T3) in whole cells was measured as described below: HER2-ELISA HER2-BT474 assays measuring whole cell HER2 activity was carried out as described below: 1. The cell line used in this assay is BT-474 (ATCC HBT20), a human breast tumor cell line which expresses high levels of HER2 kinase. 2. BT-474 is grown in an incubator with 5% CO2 at 37° C. The growth media is RPMI+10% FBS+GMS-G (Gibco supplement)+Glutamine. 3. A monoclonal anti-HER2 antibody is used in ELISA. (a) Grow BT474 cells in tissue culture dishes (10 cm, Corning 25020-100) to 80-90% confluence and collect using Trypsin-EDTA (0.25%, GIBCO). (b) Resuspend the cells in fresh medium and transfer to 96-well tissue culture plates (Corning, 25806-96) at about 25,000-50,000 cells/well (100 μl/well). Incubate the cells in 5% CO2 at 37° C. overnight. (a) Coat the ELISA plate (Corning 25805-96) with anti HER2 antibody at 0.5 μg/well in 150 μl PBS overnight at 4.sunburst. C., and seal with parafilm. The antibody coated plates can be used up to 2 weeks, when stored at 4° C. (b) On the day of use, remove the coating solution, replace with 200 μl of Blocking Buffer, shake the plate, and then remove the blocking buffer and wash the plate just before adding lysate. (a) TBST the drugs in serum-free condition. Before adding drugs, the old media (b) Dilute drug stock (in 100% DMSO) 1:10 with RPMI, and transfer 10 μl/well of this solution to the cells to achieve a final drug DMSO concentration at 1%. Incubate the cells in 5% CO2 at 37° C. (d) After drug preincubation for two hours remove all the solution from the plate, transfer HNTG* 100 μl/well to the cells, and shake for 10 minutes. (e) Use a 12-channel pipette to scrape the cells from the plate, and homogenize the lysate by repeat aspiration and dispensing. Transfer all the lysate to the ELISA plate and shake for 1 hour. (f) Remove the lysate, wash the plate, add anti-pTyr (1:3,000 with TBST) 100 μl/well, and shake for 30 minutes. (g) Remove anti-pTyr, wash the plate, add goat anti-rabbit IgG conjugated antibody (1:5,000 with TBST) 100 μl/well, and shake for 30 minutes. (h) Remove anti-rabbit IgG antibody, wash the plate, and add fresh ABTS/H2 O2 (1.2 μl H2 O2 to 10 ml ABTS) 100 l/we1l to the plate to start color development, which usually takes 20 minutes. (i) Measure OD 410 nm, Dynatec MR5000.
(In an ELISA, binding on a coated surface is turned into a signal by an enzyme label.)

The target in a further experiment is T1, IGF-1R (Homo sapiens, UniProt P08069).
T1 construct: expressed in transfected cells; host or cells: 3T3/IGF-1R cells (mouse 3T3 host)
The experiment is described as follows: Cellular IGF-1 Receptor ELISA. It counts as cell-based. Particulars: 3T3/IGF-1R cells. As to the method:
Cellular IGF-1 Receptor ELISA (Version I)
(1). The cell line used in this assay is 3T3/IGF-1R, a cell line which overexpresses IGF-1 Receptor.
(2). 3T3/IGF-1R is grown in an incubator with 5% CO2 at 37° C. The growth media is DMEM+10% FBS (heat inactivated)+2mM L-Glutamine.
(3). For ELISA plate coating, the anti-IGF-1R antibody named 17-69 is used. Antibodies are purified by the Enzymology Lab, SUGEN, Inc.
All the following steps are conducted at room temperature unless it is specifically indicated. All ELISA plate washings are performed by rinsing the plate with tap water three times, followed by one TBST rinse. Pat plate dry with paper towels.
(1). The cells, grown in tissue culture dish (10 cm, Corning 25020-100) to 80-90% confluence, are harvested with Trypsin-EDTA (0.25%, 0.5 ml/D-100, GIBCO).
(2). Resuspend the cells in fresh DMEM+10% FBS+2mM L-Glutamine, and transfer to 96-well tissue culture plate (Corning, 25806-96) at 20,000 cells/well (100 ul/well). Incubate for 1 day then replace medium to serum-free medium (90/ul) and incubate in 5% CO2 and 37° C. overnight.
(1). Coat the ELISA plate (Corning 25805-96) with Anti-IGF-1R Antibody at 0.5 ug/well in 100 ul PBS at least 2 hours.
(2). Remove the coating solution, and replace with 100 ul Blocking Buffer, and shake for 30 minutes. Remove the blocking buffer and wash the plate just before adding lysate.
(1). The drugs are tested in serum-free condition.
(2). Dilute drug stock (in 100% DMSO) 1:10 with DMEM in 96-well poly-propylene plate, and transfer 10 ul/well of this solution to the cells to achieve final drug dilution 1:100, and final DMSO concentration of 1.0%. Incubate the cells in 5% CO2 at 37° C. for 2 hours.
(3). Prepare fresh cell lysis buffer (HNTG HNTG 2 ml EDTA 0.1 ml Na3VO4 0.1 ml Na4P2O7 0.1 ml H20 7.3 ml HNTG* 10 ml.
(4). After drug incubation for two hours, transfer 10 ul/well of 200 nM IGF-1 Ligand in PBS to the cells (Final Conc=20 nM), and incubate at 5% CO2 at 37° C. for 10 minutes.
(5). Remove media and add 100ul/well HNTG* and shake for 10 minutes. Look at cells under microscope to see if they are adequately lysed.
(6). Use a 12-channel pipette to scrape the cells from the plate, and homogenize the lysate by repeat aspiration and dispense. Transfer all the lysate to the antibody coated ELISA plate [V.2.(2)], and shake for 1 hour.
(7). Remove the lysate, wash the plate, transfer anti-pTyr (1:3,000 with TBST) 100 ul/well, and shake for 30 minutes.
(7). Remove anti-pTyr, wash the plate, transfer detection antibody (1:3,000 with TBST) 100 ul/well, and shake for 30 minutes.
(8). Remove detection antibody, wash the plate, and transfer fresh ABTS/H2O2 (1.2 ul H2O2 to 10 ml ABTS) 100 ul/well to the plate to start color development.
(9). Measure OD (410 nm) in Dynatec MR5000, which is connected to Ingres.

T1 sequence (P08069 31-1367): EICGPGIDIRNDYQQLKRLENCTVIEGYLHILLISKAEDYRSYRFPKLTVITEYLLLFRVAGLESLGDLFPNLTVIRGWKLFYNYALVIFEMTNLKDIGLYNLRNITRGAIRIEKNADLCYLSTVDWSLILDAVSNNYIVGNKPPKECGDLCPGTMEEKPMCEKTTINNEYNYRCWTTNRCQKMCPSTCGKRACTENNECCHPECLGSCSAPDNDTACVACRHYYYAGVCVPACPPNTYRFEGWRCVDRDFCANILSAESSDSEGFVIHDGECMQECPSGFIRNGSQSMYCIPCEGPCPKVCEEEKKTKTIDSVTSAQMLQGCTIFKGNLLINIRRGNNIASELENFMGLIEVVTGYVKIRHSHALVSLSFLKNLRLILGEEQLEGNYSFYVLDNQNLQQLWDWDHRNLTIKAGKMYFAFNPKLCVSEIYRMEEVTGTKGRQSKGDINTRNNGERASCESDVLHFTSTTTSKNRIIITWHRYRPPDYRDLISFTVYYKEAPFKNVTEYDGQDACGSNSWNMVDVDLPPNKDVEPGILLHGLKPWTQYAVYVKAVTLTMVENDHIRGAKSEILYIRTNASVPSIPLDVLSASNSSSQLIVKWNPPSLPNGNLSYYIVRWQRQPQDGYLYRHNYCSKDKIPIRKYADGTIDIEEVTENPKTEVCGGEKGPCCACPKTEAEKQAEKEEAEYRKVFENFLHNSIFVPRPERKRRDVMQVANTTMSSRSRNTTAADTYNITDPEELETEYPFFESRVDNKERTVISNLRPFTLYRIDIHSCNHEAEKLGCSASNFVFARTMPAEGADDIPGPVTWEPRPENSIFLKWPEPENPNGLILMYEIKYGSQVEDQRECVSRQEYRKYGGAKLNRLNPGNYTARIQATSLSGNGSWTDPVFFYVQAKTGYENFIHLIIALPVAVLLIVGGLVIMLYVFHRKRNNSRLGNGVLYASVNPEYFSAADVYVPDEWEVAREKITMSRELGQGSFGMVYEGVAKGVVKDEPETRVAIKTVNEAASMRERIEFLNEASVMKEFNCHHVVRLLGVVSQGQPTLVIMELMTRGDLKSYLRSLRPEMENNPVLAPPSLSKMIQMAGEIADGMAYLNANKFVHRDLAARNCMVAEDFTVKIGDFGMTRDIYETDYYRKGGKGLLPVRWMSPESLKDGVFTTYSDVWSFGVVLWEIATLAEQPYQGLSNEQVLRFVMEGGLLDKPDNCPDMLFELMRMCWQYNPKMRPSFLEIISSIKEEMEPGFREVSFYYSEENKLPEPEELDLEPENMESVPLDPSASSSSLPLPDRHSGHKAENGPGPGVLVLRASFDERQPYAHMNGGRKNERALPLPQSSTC

In the case of `CCOC(=O)c1cnc2ccc(C(F)(F)F)cc2c1Nc1ccc(OC)c(OC)c1` [Compound A726, 3-Ethoxycarbonyl-4-(3,4-dimethoxyphenylamino)-6-trifluoromethylquinoline], the half-maximal inhibitory concentration (IC50) in the experiment with HER2 and on IGF-1R was more than 100 µM in each case. With `CCOC(=O)c1cnc2ccc(C(F)(F)F)cc2c1Nc1ccccc1C#N` [Compound A723, 4-(2-Cyanophenylamino)-3-ethoxycarbonyl-6-trifluoromethylquinoline], the half-inhibitory concentration (IC50) is more than 10 µM in the experiment with HER2 and more than 100 µM on IGF-1R. Molecule `CCOC(=O)c1cnc2c(F)cc(F)cc2c1Sc1ccc(Cl)cc1` [Compound A730, 4-(4-Chlorophenylmercapto)-6,8-difluoro-3-ethoxycarbonylquinoline] came in with a half-maximal inhibitory concentration (IC50) on IGF-1R of more than 50 µM. As to `CCOC(=O)c1cnc2ccc(C(F)(F)F)cc2c1Nc1ccc(Cl)cc1` [Compound A729, 4-(4-Chlorophenylamino)-3-ethoxycarbonyl-6-trifluoromethylquinoline], the IC50 in the experiment on HER2 and against IGF-1R was more than 100 µM in each case. As for `CCOC(=O)c1cnc2ccc(C(F)(F)F)cc2c1NCc1cccc(C(F)(F)F)c1` [Compound A718, 3-Ethoxycarbonyl-4-(3-trifluoromethylbenzylamino)-6-trifluoromethylquinoline], the concentration for half-maximal inhibition (IC50) was more than 50 µM in the experiment with HER2 and more than 100 µM against IGF-1R. For `CCOC(=O)c1cnc2ccc(C(F)(F)F)cc2c1Nc1cccc(Cl)c1` [Compound A728, 4-(3-Chlorophenylamino)-3-ethoxycarbonyl-6-trifluoromethylquinoline] the same measures were more than 75 µM and more than 100 µM. With `CCOC(=O)c1cnc2c(F)ccc(F)c2c1Sc1ccc(Cl)cc1` [Compound A732, 4-(4-Chlorophenylmercapto)-5,8-difluoro-3-ethoxycarbonylquinoline], the IC50 on IGF-1R was more than 100 µM. On to `CCOC(=O)c1cnc2ccc(C(F)(F)F)cc2c1Nc1ccc(Br)cc1` [Compound A727, 4-(4-Bromophenylamino)-3-ethoxycarbonyl-6-trifluoromethylquinoline], for which the IC50 in the experiment with HER2 was more than 10 µM; at IGF-1R it was more than 100 µM. At IGF-1R, `CCOC(=O)c1cnc2cc(Cl)c(F)cc2c1Sc1ccc(Cl)cc1` [Compound A731, 7-Chloro-4-(4-chlorophenylmercapto)-6-fluoro-3-ethoxycarbonylquinoline] displayed an IC50 of more than 50 µM. Consider `CCOC(=O)c1cnc2ccc(C(F)(F)F)cc2c1NCc1ccc(C(F)(F)F)cc1` [Compound A719, 3-Ethoxycarbonyl-4-(4-trifluoromethylbenzylamino)-6-trifluoromethylquinoline], for which the IC50 with HER2 and on IGF-1R was more than 100 µM in each case. `CCOC(=O)c1cnc2ccc(C(F)(F)F)cc2c1Nc1ccccc1C(F)(F)F` [Compound A720, 3-Ethoxycarbonyl-4-(2-trifluoromethylphenylamino)-6-trifluoromethylquinoline]: the half-inhibitory concentration (IC50) with HER2 and at IGF-1R was more than 100 µM each time. Regarding `CCOC(=O)c1cnc2c(F)ccc(F)c2c1Sc1cccc(C(F)(F)F)c1` [Compound A713, 3-Ethoxycarbonyl-5,8-difluoro-4-(3-trifluoromethylphenylmercapto)quinoline], the values for the half-maximal inhibitory concentration (IC50) in the experiment on HER2 and against IGF-1R were 36 µM and more than 100 µM, respectively.

Turning to `CCOC(=O)c1cnc2ccc(C(F)(F)F)cc2c1Nc1cccc(Br)c1` [Compound A716, 4-(3-Bromophenylamino)-3-ethoxycarbonyl-6-trifluoromethylquinoline], the half-inhibitory concentration (IC50) with HER2 and on IGF-1R was more than 100 µM in each case.

Consider `CCOC(=O)c1cnc2ccc(C(F)(F)F)cc2c1NCc1ccccc1C(F)(F)F` [Compound A717, 3-Ethoxycarbonyl-4-(2-trifluoromethylbenzylamino)-6-trifluoromethylquinoline], for which the IC50 in the experiment on HER2 and against IGF-1R was more than 100 µM in each case. For `CCOC(=O)c1cnc2ccc(C(F)(F)F)cc2c1Nc1ccc(C(F)(F)F)cc1` [Compound A722, 3-Ethoxycarbonyl-4-(4-trifluoromethylphenylamino)-6-trifluoromethylquinoline], the IC50 in the experiment with HER2 and against IGF-1R was more than 100 µM throughout.

Turning to `CCOC(=O)c1cnc2ccc(C(F)(F)F)cc2c1Nc1ccc(C#N)cc1` [Compound A725, 4-(4-Cyanophenylamino)-3-ethoxycarbonyl-6-trifluoromethylquinoline], the IC50 in the experiment with HER2 and against IGF-1R was more than 100 µM each time.

Consider `CCOC(=O)c1cnc2ccc(C(F)(F)F)cc2c1Nc1cccc(C(F)(F)F)c1` [Compound A721, 3-Ethoxycarbonyl-4-(3-trifluoromethylphenylamino)-6-trifluoromethylquinoline], for which the IC50 in the experiment with HER2 and against IGF-1R was more than 100 µM in each case.
